Values of other authors in US20110178470A1, “PHARMACEUTICAL COMPOSITIONS COMPRISING BORONIC ACID COMPOUNDS” (DR. REDDY'S LABORATORIES LTD., priority 2008, published 2011).

Settings: as the monomeric boronic acid; pH range of 2 to 6.5

Structure (SMILES): CC(C)C[C@H](NC(=O)[C@H](Cc1ccccc1)NC(=O)c1cnccn1)B(O)O [bortezomib, [(1R)-3-methyl-1-[[(2S)-1-oxo-3-phenyl-2-[(pyrazinylcarbonyl)amino]propyl]amino]butyl]boronic acid]
- solubility in water: 3300 to 3800 µg/mL
